This note sets out measurements from ChEMBL document CHEMBL5550171, “Poly (ADP-ribose) polymerase (PARP) inhibitors as anticancer agents: An outlook on clinical progress, synthetic strategies, biological activity, and structure-activity relationship” (Eur J Med Chem, 2024).

Series [1] deals with MDA-MB-436. In words: Antiproliferative activity against human MDA-MB-436 cells assessed as reduction in cell viability incubated for 72 hrs by MTT assay. Format: functional, cell-based. Particulars: MDA-MB-436, 72 h.
Series [2] concerns the target T1, Poly [ADP-ribose] polymerase 1 (Homo sapiens, UniProt P09874). In words: Inhibition of human recombinant PARP-1 by ELISA assay.
Series [3] has as its target T1, Poly [ADP-ribose] polymerase 1. In words: Inhibition of human recombinant PARP1 expressed in Escherichia coli BL21(DE3).
In series [4] the test system is HCT-116. In words: Cytotoxicity against human HCT-116 cells assessed as reduction in cell growth incubated for 96 hrs by MTT assay. Format: functional, cell-based. Particulars: HCT-116, 96 h.
Series [5] can be described thus: Antiproliferative activity against human MCF10A cells assessed as inhibition of cell growth incubated for 72 hrs by alamar blue assay. Format: functional, cell-based. As to conditions: MCF10AT1, 72 h. In general terms: Resazurin is reduced to fluorescent resorufin, in cell work by metabolically active cells.
The target in series [6] is T1, Poly [ADP-ribose] polymerase 1. In words: Inhibition of human recombinant PARP1 at 0.01 uM relative to control.
Series [7] shares this target. In words: Inhibition of human recombinant PARP1 at 0.1 uM relative to control.
Series [8] shares this target. In words: Inhibition of human recombinant PARP1 at 1 uM relative to control.
Series [9] shares this target. The series can be described thus: Inhibition of human recombinant PARP1 at 10 uM relative to control.
For series [10] the target is unchanged. In words: Inhibition of human recombinant PARP1 at 100 uM relative to control.
For series [11] the target is unchanged. The series can be described thus: Inhibition of PARP1 (unknown origin).
Series [12] concerns MCF7. In words: Antiproliferative activity against human MCF7 cells assessed as reduction in cell growth measured after 72 hrs by MTT assay. As to conditions: MCF7, 72 h. The format is functional, cell-based. On the technique in general: Tetrazolium dyes change colour on reduction, which living cells bring about.
The subject of series [13] is MCF7. In words: Cytotoxicity against human MCF7 cells assessed as reduction in cell growth incubated for 72 hrs by alamar blue reagent based analysis. Particulars: MCF7, 72 h. Format: functional.
The subject of series [14] is MDA-MB-231. In words: Cytotoxicity against human MDA-MB-231 cells assessed as reduction in cell growth incubated for 72 hrs by alamar blue reagent based analysis. Format: functional. As to conditions: MDA-MB-231, 72 h.
Series [15] has as its target Poly [ADP-ribose] polymerase 2 (Homo sapiens, UniProt Q9UGN5). In words: Inhibition of PARP2 (unknown origin).
The next series relates to RPMI-8226. The series can be described thus: Growth inhibition of human RPMI-8226 cells. Format: functional.
For a further series, the system named is NCI-H226. In words: Growth inhibition of human NCI-H226 cells. The format is functional.
The test system of series [16] is HCT-116. In words: Growth inhibition of human HCT-116 cells. The format is functional.
The subject of another series is SNB-75. The series can be described thus: Growth inhibition of human SNB-75 cells. The format is functional.
In a further series the test system is LOX IMVI. In words: Growth inhibition of human LOX IMVI cells. The format is functional.
The next series relates to IGROV-1. The series can be described thus: Growth inhibition of human IGROV-1 cells. The format is functional.
A further series deals with MDA-MB-468. The series can be described thus: Growth inhibition of human MDA-MB-468 cells. Format: functional.
Series [17] concerns HCT-116. The series can be described thus: Antiproliferative activity against human HCT-116 cells assessed as reduction in cell viability incubated for 72 hrs by MTT assay. Format: functional, cell-based. Particulars: HCT-116, 72 h.
In series [18] the test system is MCF7. In words: Antiproliferative activity against human MCF7 cells assessed as reduction in cell viability incubated for 72 hrs by MTT assay. As to conditions: MCF7, 72 h. The format is functional, cell-based.
Another series has as its system Jurkat. In words: Antiproliferative activity against human Jurkat cells assessed as reduction in cell viability incubated for 72 hrs by MTT assay. The format is functional, cell-based.
Series [19] concerns A549. The series can be described thus: Antiproliferative activity against human A549 cells assessed as reduction in cell viability incubated for 72 hrs by MTT assay. The format is functional, cell-based. As to conditions: A549, 72 h.
For the next series, the system named is SK-OV-3. The series can be described thus: Antiproliferative activity against human SK-OV-3 cells assessed as reduction in cell viability incubated for 72 hrs by MTT assay. Particulars: SK-OV-3, 72 h. The format is functional, cell-based.
The test system of a further series is KB 3-1. In words: Antiproliferative activity against human KB 3-1 cells assessed as reduction in cell viability incubated for 72 hrs by MTT assay. Format: functional, cell-based. Particulars: KB 3-1, 72 h.
A short description of series [20]: Cytotoxicity against mouse BALB/3T3 cells assessed as reduction in cell viability incubated for 72 hrs by MTT assay. The format is toxicity, cell-based.
Series [21] has as its system MCF7. In words: Antiproliferative activity against human MCF7 cells assessed as reduction in cell viability at 10 uM incubated for 24 hrs by MTT assay. Format: functional.
Series [22] deals with MCF7. In words: Antiproliferative activity against human MCF7 cells assessed as reduction in cell viability at 10 uM incubated for 48 hrs by MTT assay. The format is functional.
Series [23] relates to MCF7. In words: Antiproliferative activity against human MCF7 cells assessed as reduction in cell viability at 10 uM incubated for […] by MTT assay. Format: functional.
In series [24] the test system is MCF7. The series can be described thus: Cytotoxicity against human MCF7 cells harbouring BRCA1 assessed as inhibition of cell growth measured after 72 hrs by MTT assay. Format: functional, cell-based. Particulars: MCF7, 72 h.
For the next series, the system named is CAPAN-1. The series can be described thus: Antiproliferative activity against human CAPAN-1 cells assessed as reduction in cell viability incubated for 72 hrs by CCK-8 assay. The format is functional, cell-based. As to conditions: CAPAN-1, 72 h.
Another series deals with HCC1937. The series can be described thus: Antiproliferative activity against human HCC1937 cells assessed as reduction in cell viability incubated for 72 hrs by CCK-8 assay. Format: functional, cell-based. Particulars: HCC1937, 72 h.
Series [25] has as its system MDA-MB-436. The series can be described thus: Antiproliferative activity against human MDA-MB-436 cells assessed as reduction in cell viability incubated for 72 hrs by CCK-8 assay. The format is functional, cell-based. Particulars: MDA-MB-436, 72 h.
Series [26] deals with MCF7. In words: Antiproliferative activity against human MCF7 cells assessed as reduction in cell growth incubated for 72 hrs by CCK-8 assay. The format is functional, cell-based. Particulars: MCF7, 72 h.
The test system of series [27] is MDA-MB-231. The series can be described thus: Antiproliferative activity against human MDA-MB-231 cells assessed as reduction in cell growth incubated for 72 hrs by CCK-8 assay. The format is functional, cell-based. As to conditions: MDA-MB-231, 72 h.
Series [28] concerns A549. The series can be described thus: Antiproliferative activity against human A549 cells assessed as reduction in cell growth incubated for 72 hrs by CCK-8 assay. Format: functional, cell-based. Particulars: A549, 72 h.
Another series relates to K562. In words: Antiproliferative activity against human K562 cells assessed as reduction in cell growth incubated for 72 hrs by CCK-8 assay. Format: functional, cell-based. Particulars: K562, 72 h.
The target of series [29] is Protein mono-ADP-ribosyltransferase PARP3 (Homo sapiens, UniProt Q9Y6F1). The series can be described thus: Inhibition of PARP3 (unknown origin).
In series [30] the target is T1, Poly [ADP-ribose] polymerase 1. In words: Inhibition of human PARP1.
For series [31], the system named is MDA-MB-436. In words: Cytotoxicity against human MDA-MB-436 cells. Format: functional, cell-based.

The structures appear in SMILES notation.

T1 sequence (P09874 whole entry): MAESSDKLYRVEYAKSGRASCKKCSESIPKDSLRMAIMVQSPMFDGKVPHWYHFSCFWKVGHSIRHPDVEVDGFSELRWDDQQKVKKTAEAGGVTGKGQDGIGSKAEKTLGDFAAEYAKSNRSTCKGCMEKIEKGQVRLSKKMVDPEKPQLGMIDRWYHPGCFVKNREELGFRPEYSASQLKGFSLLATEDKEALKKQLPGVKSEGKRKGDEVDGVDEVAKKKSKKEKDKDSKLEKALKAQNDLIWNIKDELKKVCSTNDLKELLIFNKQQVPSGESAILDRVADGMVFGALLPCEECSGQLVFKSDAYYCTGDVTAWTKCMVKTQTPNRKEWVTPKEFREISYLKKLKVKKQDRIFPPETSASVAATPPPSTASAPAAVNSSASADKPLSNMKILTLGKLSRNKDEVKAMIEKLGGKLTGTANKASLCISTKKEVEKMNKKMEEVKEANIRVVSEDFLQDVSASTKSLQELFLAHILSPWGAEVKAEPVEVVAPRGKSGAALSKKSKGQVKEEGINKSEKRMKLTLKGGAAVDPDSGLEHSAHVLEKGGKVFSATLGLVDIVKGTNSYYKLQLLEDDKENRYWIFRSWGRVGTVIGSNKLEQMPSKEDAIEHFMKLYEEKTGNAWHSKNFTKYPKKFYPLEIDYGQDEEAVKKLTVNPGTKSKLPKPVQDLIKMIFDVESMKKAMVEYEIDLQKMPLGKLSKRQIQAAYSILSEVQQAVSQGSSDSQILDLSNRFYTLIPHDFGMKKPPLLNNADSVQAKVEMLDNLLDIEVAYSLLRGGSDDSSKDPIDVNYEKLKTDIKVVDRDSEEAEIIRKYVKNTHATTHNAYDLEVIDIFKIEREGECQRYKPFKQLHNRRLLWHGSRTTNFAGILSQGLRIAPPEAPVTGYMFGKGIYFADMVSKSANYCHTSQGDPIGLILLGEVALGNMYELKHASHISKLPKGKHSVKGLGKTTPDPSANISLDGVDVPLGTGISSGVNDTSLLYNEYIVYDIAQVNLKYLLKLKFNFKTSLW
Chain of Protein mono-ADP-ribosyltransferase PARP3 (Q9Y6F1 whole entry): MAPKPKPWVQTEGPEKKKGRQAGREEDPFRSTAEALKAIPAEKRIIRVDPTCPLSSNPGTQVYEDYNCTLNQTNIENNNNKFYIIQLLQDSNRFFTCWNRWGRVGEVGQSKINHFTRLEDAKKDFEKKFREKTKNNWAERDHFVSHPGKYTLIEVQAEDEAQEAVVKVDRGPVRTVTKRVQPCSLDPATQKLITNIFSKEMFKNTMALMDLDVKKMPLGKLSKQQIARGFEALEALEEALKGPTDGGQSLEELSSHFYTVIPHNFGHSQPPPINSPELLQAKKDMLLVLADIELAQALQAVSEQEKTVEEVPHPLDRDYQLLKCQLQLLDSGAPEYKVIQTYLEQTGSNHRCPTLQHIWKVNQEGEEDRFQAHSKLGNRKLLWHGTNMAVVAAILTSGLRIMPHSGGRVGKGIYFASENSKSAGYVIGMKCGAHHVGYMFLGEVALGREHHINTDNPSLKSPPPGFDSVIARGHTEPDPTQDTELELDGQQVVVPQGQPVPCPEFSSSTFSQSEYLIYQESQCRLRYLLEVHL
Chain of Poly [ADP-ribose] polymerase 2 (Q9UGN5 whole entry): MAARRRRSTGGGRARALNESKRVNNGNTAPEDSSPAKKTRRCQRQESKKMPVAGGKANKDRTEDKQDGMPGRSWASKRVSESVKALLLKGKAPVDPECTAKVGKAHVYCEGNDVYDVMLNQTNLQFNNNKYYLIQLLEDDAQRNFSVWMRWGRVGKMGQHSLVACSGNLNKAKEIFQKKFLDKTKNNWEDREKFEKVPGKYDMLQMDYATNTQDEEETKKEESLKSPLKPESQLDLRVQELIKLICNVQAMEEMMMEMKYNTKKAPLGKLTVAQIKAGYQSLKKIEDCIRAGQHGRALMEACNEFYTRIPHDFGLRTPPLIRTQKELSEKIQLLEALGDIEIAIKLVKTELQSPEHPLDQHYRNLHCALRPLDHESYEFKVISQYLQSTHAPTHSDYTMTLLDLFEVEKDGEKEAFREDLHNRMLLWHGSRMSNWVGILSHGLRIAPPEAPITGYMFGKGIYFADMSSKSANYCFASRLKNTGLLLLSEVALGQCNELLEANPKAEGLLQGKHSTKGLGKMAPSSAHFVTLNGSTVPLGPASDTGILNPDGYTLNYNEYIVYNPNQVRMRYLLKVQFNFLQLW

What is called IC50 is the concentration at which inhibition is half-maximal. For the molecule `NC(=O)c1cccc2[nH]c(-c3ccc(C(=O)N4CCN(C(=O)c5ccc(Cl)o5)CC4)cc3)nc12`, the values for the IC50 (in the series with MDA-MB-436 [1]; in [2]) were 36.7 µM and 0.043 µM, respectively.

Take `NC(=O)c1cccc2[nH]c(-c3ccc(C(=O)NC4CCN(C(=O)c5ccc(Cl)o5)C4)cc3)nc12` (centres undefined): the concentration for half-maximal inhibition (IC50) in [3] was determined as 0.00865 µM.

For `O=c1[nH]c2c(c(=O)[nH]1)C(c1cccs1)c1[nH]c(=S)n(-c3ccccc3)c(=O)c1O2` (centres undefined), in the series with HCT-116 [4], the IC50 was 46 µM.

The term inhibition denotes how much of the control response was suppressed. Take `COc1ccc(CSc2nccc(OCC(=O)N3CCN(c4cccc(Cl)c4Cl)CC3)n2)cc1`: the IC50 in [5] was 18.2 µM. Further, the inhibition turned out to be 1.3% in series [6]; 2% in [7]; 20.6% in series [8]; 53% in series [9]; 82.1% in series [10].

In the case of `O=C(Cn1c(=S)n(-c2ccccc2)c(=O)c2ccccc21)Nc1cccc2ccccc12`, the IC50 in series [11] worked out at 0.14 µM; in the series with MCF7 [12], 10.6 µM.

Regarding `COc1ccc(Cc2nnc(-c3cccc(-c4ccnc(F)c4C)c3)o2)cc1OC`, the figures for the half-inhibitory concentration (IC50) with MCF7 [13] and in the series with MDA-MB-231 [14] were 15.3 µM and 19.2 µM, respectively.

In the case of `NC(=O)c1cccc2[nH]c(-c3ccc(C(=O)N4CCN(C(=O)c5ccc(Br)o5)CC4)cc3)nc12`, the results for the IC50 (with MDA-MB-436 [1]; in [2]) were 43.6 µM and 0.023 µM, respectively.

A word on the GI50: it is the concentration at which growth is held to half of that of the control. `CCOC(=O)c1ccc(NC(=O)CS/C(=C\C(=O)c2sc(Nc3ccccn3)nc2C)c2ccccc2F)cc1`: the 50% inhibitory concentration (IC50) was 2.28 µM in [11]; 0.72 µM in [15]; 6.11 µM in the series on HCT-116 [17]; 2.79 µM with MCF7 [18]; 5.36 µM in the series with Jurkat; 8.05 µM in the series with A549 [19]. The IC50 was 7.87 µM with SK-OV-3, 7.63 µM with KB 3-1 and 0.7 µM with MCF7 [24]. For the same molecule, the GI50 turned out to be 8.29 µM in the series on RPMI-8226; 2.52 µM with NCI-H226; 23 µM in the series on HCT-116 [16]; 3.58 µM in the series with SNB-75; 0.312 µM with LOX IMVI; 12.1 µM in the series on IGROV-1. The same molecule returned a GI50 in the series with MDA-MB-468 of 4.24 µM. Also, the IC50 at 72 h in series [20] worked out at 7.79 µM. For the same molecule, the values for the Activity with MCF7 [21], in the series with MCF7 [22] and with MCF7 [23] were 19.9%, 43% and 90%, respectively.

For the molecule `O=C(Cn1c(=S)n(-c2ccccc2)c(=O)c2ccccc21)Nc1ccc2c(c1)C(=O)c1ccccc1C2`, the IC50 in series [11] came out at 0.17 µM; in the series on MCF7 [12], 11.4 µM.

As to `Nc1nc(S)nc2c1Oc1[nH]c(=O)[nH]c(=O)c1C2c1cccs1` (centres undefined), the IC50 in the series on HCT-116 [4] stood at 9.31 µM.

As for `O=C(CCCc1ccc(N(CCCl)CCCl)cc1)N1CCN(C(=O)c2cc(Cc3n[nH]c(=O)c4ccccc34)ccc2F)CC1`, the 50% inhibitory concentration (IC50) was determined as 0.086 µM in the series on CAPAN-1; 0.18 µM in the series with HCC1937; 0.013 µM with MDA-MB-436 [25]; 30.6 µM in the series with MCF7 [26]; 53.8 µM with MDA-MB-231 [27]; 1.62 µM in the series with A549 [28]. Besides, in the series with K562, the half-maximal inhibitory concentration (IC50) is 10.4 µM.

In [29], `CCN(CC)CCC(=O)Nc1ccc(-c2nc3cc(Cl)ccc3o2)cc1` returned a half-inhibitory concentration (IC50) of 0.057 µM.

In [30], `Cc1c(C(=O)/C=C/c2cccc([N+](=O)[O-])c2)nnn1-c1ccc(Br)cc1` returned an IC50 of 0.00315 µM.

Turning to `COc1ccc(/C=C2\CC3(CC4C2OC(=O)C(C(C)=O)C4c2ccc(OC)cc2)OCCO3)cc1` (centres undefined), the IC50 with MDA-MB-436 [31] turned out to be 7.47 µM.
